# From publication PMC4917279 (Journal of Medicinal Chemistry, 2016)
# Entries after “also recorded” stand apart in the source; their conditions may differ.
# Tests used:
# PIK3CG = biological target: T1, PIK3CG (Homo sapiens, UniProt P48736); experiment: KINOMEscan; assay type: binding; conditions: read-out: %Ctrl @ 1000 nM
# T1 construct: purchased DiscoveRx KINOMEscan
# SGK3 = biological target: T2, SGK3 (Homo sapiens, UniProt Q96BR1); experiment: KINOMEscan; assay type: binding; conditions: read-out: %Ctrl @ 1000 nM
# T2 construct: purchased DiscoveRx KINOMEscan
# p38-gamma = biological target: T3, p38-gamma (Homo sapiens, UniProt P53778); experiment: KINOMEscan; assay type: binding; conditions: read-out: %Ctrl @ 1000 nM
# T3 construct: purchased DiscoveRx KINOMEscan
# T3 sequence (P53778 whole entry): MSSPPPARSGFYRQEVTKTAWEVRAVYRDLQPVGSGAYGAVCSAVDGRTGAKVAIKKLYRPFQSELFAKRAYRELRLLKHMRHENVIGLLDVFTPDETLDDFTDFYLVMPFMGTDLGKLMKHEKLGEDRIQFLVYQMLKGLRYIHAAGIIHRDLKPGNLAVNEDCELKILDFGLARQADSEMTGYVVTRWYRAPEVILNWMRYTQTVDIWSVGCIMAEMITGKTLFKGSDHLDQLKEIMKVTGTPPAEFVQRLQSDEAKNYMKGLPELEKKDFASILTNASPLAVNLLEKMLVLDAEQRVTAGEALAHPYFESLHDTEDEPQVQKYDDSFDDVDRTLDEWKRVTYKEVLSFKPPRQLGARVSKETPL
# STK16 = biological target: T4, STK16 (Homo sapiens, UniProt O75716); experiment: KINOMEscan; assay type: binding; conditions: read-out: %Ctrl @ 1000 nM
# T4 construct: purchased DiscoveRx KINOMEscan
# PFTK1 = biological target: T5, PFTK1 (Homo sapiens, UniProt O94921); experiment: KINOMEscan; assay type: binding; conditions: read-out: %Ctrl @ 1000 nM
# T5 construct: purchased DiscoveRx KINOMEscan
# ASK2 = biological target: T6, ASK2 (Homo sapiens, UniProt O95382); experiment: KINOMEscan; assay type: binding; conditions: read-out: %Ctrl @ 1000 nM
# T6 construct: purchased DiscoveRx KINOMEscan
# PYK2 = biological target: T7, PYK2 (Homo sapiens, UniProt Q14289); experiment: KINOMEscan; assay type: binding; conditions: read-out: %Ctrl @ 1000 nM
# T7 construct: purchased DiscoveRx KINOMEscan
# T7 sequence (Q14289 whole entry): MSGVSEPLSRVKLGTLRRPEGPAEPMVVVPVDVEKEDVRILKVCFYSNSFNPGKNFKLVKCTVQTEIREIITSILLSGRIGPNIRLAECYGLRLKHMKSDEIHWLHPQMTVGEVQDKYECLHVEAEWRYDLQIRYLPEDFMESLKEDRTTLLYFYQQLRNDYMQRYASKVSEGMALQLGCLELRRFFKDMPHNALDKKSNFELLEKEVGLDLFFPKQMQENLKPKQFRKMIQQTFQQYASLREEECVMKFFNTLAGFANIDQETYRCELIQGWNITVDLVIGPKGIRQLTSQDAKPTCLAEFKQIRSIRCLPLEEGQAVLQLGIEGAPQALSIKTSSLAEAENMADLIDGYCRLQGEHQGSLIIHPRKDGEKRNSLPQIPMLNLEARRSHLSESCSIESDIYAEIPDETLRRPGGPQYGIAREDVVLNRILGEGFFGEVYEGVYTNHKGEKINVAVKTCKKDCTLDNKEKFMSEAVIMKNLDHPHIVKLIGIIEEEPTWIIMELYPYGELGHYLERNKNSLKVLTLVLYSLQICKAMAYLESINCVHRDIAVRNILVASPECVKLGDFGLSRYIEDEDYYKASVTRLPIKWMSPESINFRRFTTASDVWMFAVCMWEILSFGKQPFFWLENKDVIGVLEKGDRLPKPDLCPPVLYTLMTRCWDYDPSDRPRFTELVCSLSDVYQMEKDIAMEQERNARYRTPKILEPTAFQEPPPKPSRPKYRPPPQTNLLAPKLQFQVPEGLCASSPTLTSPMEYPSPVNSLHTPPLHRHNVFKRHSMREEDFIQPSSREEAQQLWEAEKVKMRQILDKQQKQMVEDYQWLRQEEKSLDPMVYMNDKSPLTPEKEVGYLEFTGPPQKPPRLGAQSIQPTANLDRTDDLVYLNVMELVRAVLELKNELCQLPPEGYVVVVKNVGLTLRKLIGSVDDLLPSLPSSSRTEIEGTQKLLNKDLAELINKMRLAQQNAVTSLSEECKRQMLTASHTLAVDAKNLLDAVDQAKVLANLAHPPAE
# PRKG2 = biological target: T8, PRKG2 (Homo sapiens, UniProt Q13237); experiment: KINOMEscan; assay type: binding; conditions: read-out: %Ctrl @ 1000 nM
# T8 construct: purchased DiscoveRx KINOMEscan
# MST2 = biological target: T9, MST2 (Homo sapiens, UniProt Q13188); experiment: KINOMEscan; assay type: binding; conditions: read-out: %Ctrl @ 1000 nM
# T9 construct: purchased DiscoveRx KINOMEscan
# T9 sequence (Q13188 whole entry): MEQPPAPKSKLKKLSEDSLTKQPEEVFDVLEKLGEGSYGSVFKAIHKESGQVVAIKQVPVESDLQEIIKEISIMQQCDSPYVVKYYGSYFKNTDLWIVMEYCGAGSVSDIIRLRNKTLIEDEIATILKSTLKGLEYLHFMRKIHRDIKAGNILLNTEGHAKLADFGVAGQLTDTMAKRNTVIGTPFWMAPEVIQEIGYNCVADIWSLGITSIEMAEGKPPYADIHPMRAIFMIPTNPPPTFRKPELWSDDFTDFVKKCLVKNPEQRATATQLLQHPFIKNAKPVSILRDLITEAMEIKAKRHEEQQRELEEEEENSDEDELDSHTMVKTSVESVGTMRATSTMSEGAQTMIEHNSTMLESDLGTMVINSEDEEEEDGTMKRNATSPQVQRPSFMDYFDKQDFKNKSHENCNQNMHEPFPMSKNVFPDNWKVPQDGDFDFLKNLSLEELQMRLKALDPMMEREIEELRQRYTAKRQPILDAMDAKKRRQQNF
# EPHA5 = biological target: T10, EPHA5 (Homo sapiens, UniProt P54756); experiment: KINOMEscan; assay type: binding; conditions: read-out: %Ctrl @ 1000 nM
# T10 construct: purchased DiscoveRx KINOMEscan
# GRK1 = biological target: T11, GRK1 (Homo sapiens, UniProt Q15835); experiment: KINOMEscan; assay type: binding; conditions: read-out: %Ctrl @ 1000 nM
# T11 construct: purchased DiscoveRx KINOMEscan
# PRKCQ = biological target: T12, PRKCQ (Homo sapiens, UniProt Q04759); experiment: KINOMEscan; assay type: binding; conditions: read-out: %Ctrl @ 1000 nM
# T12 construct: purchased DiscoveRx KINOMEscan
# [1] = biological target: RPS6KA4(Kin.Dom.2-C-terminal) (Homo sapiens, UniProt O75676); experiment: KINOMEscan; assay type: binding; conditions: read-out: %Ctrl @ 1000 nM
# MERTK = biological target: T13, MERTK (Homo sapiens, UniProt Q12866); experiment: KINOMEscan; assay type: binding; conditions: read-out: %Ctrl @ 1000 nM
# T13 construct: purchased DiscoveRx KINOMEscan
# TAK1 = biological target: T14, TAK1 (Homo sapiens, UniProt O43318); experiment: KINOMEscan; assay type: binding; conditions: read-out: %Ctrl @ 1000 nM
# T14 construct: purchased DiscoveRx KINOMEscan
# PLK3 = biological target: T15, PLK3 (Homo sapiens, UniProt Q9H4B4); experiment: KINOMEscan; assay type: binding; conditions: read-out: %Ctrl @ 1000 nM
# T15 construct: purchased DiscoveRx KINOMEscan
# SRPK1 = biological target: T16, SRPK1 (Homo sapiens, UniProt Q96SB4); experiment: KINOMEscan; assay type: binding; conditions: read-out: %Ctrl @ 1000 nM
# T16 construct: purchased DiscoveRx KINOMEscan
# T16 sequence (Q96SB4 whole entry): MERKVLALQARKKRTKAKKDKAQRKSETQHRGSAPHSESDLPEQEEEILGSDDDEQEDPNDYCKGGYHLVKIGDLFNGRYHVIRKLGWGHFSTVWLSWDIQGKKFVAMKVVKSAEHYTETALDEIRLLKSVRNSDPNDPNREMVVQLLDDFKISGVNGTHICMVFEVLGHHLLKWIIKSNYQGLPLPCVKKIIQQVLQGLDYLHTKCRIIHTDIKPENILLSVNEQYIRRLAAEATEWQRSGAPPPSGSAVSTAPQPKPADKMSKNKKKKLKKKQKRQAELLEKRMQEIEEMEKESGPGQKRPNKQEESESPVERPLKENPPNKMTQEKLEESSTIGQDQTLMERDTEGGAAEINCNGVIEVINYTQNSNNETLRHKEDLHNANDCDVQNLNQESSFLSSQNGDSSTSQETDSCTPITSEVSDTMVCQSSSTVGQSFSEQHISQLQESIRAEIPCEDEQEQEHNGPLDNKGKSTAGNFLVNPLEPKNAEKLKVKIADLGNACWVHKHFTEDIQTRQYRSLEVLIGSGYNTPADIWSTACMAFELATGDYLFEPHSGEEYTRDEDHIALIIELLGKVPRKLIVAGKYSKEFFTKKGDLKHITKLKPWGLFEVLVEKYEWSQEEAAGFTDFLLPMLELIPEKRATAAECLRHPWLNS
# TAOK2 = biological target: T17, TAOK2 (Homo sapiens, UniProt Q9UL54); experiment: KINOMEscan; assay type: binding; conditions: read-out: %Ctrl @ 1000 nM
# T17 construct: purchased DiscoveRx KINOMEscan
# [2] = biological target: T18, JAK2(JH1domain-catalytic) (Homo sapiens, UniProt O60674); experiment: KINOMEscan; assay type: binding; conditions: read-out: %Ctrl @ 1000 nM
# T18 construct: JAK2(JH1domain-catalytic); purchased DiscoveRx KINOMEscan
# T18 sequence (O60674 849-1132 limits assumed): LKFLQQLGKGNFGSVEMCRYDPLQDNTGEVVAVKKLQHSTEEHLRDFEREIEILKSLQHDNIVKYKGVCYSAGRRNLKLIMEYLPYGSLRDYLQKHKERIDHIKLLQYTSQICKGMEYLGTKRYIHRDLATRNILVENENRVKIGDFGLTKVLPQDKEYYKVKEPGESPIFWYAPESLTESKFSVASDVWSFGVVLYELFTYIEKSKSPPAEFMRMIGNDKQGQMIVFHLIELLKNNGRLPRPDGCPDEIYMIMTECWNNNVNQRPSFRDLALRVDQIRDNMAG
# SMYD2 = SMYD2 (Homo sapiens, UniProt Q9NRG4); experiment: AHNAK methylation Western blot in MDA-MB231 cells overexpressing SMYD2; assay type: cell-based; parameters: expressed in transfected cells
# Sequence of SMYD2 (Q9NRG4 whole entry): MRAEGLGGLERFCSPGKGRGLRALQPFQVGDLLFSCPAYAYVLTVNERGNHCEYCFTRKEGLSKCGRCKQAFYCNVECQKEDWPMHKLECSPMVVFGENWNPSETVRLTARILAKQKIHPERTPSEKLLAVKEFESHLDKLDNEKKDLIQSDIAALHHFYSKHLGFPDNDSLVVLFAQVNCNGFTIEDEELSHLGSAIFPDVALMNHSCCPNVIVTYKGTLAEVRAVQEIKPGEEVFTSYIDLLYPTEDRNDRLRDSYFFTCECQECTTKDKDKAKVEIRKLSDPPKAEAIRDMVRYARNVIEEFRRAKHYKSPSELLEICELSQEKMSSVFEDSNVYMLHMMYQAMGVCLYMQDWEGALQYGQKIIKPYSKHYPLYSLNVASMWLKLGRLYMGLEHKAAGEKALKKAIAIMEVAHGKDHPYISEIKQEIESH
# FGFR3 = biological target: T19, FGFR3 (Homo sapiens, UniProt P22607); experiment: KINOMEscan; assay type: binding; conditions: read-out: %Ctrl @ 1000 nM
# T19 construct: purchased DiscoveRx KINOMEscan
# PIK3CA(H1047Y) = biological target: T20, PIK3CA(H1047Y) (Homo sapiens, UniProt P42336, H1047Y); experiment: KINOMEscan; assay type: binding; conditions: read-out: %Ctrl @ 1000 nM
# T20 construct: purchased DiscoveRx KINOMEscan
# TEC = biological target: T21, TEC (Homo sapiens, UniProt P42680); experiment: KINOMEscan; assay type: binding; conditions: read-out: %Ctrl @ 1000 nM
# T21 construct: purchased DiscoveRx KINOMEscan
# T21 sequence (P42680 whole entry): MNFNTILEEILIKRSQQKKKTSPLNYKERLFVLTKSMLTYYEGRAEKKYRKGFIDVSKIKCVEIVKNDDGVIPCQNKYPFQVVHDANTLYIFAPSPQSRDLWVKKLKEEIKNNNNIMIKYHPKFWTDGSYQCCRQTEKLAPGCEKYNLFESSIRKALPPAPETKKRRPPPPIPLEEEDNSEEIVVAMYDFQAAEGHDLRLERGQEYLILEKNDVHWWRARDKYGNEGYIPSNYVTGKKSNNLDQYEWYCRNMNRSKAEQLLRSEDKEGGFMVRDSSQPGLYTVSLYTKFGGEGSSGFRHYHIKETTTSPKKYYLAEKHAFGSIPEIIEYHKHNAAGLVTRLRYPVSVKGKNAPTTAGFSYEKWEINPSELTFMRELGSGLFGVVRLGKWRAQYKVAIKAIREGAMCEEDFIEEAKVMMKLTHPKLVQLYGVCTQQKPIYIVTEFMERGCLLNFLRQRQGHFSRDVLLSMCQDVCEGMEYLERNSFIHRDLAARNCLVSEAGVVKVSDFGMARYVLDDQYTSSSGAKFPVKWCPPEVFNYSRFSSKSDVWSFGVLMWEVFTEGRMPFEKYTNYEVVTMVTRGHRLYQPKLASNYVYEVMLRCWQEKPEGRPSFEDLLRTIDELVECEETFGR
# CDK4-cyclinD1 = biological target: T22, CDK4-cyclinD1 (Homo sapiens, UniProt P11802); experiment: KINOMEscan; assay type: binding; conditions: read-out: %Ctrl @ 1000 nM
# T22 construct: purchased DiscoveRx KINOMEscan
# PKNB(M.tuberculosis) = biological target: T23, PKNB(M.tuberculosis) (Mycobacterium tuberculosis, UniProt P9WI81); experiment: biochemical; assay type: binding; conditions: read-out: %Ctrl @ 1000 nM
# T23 construct: purchased DiscoveRx KINOMEscan
# PRKG1 = biological target: T24, PRKG1 (Homo sapiens, UniProt Q13976); experiment: KINOMEscan; assay type: binding; conditions: read-out: %Ctrl @ 1000 nM
# T24 construct: purchased DiscoveRx KINOMEscan
# DYRK1B = biological target: T25, DYRK1B (Homo sapiens, UniProt Q9Y463); experiment: KINOMEscan; assay type: binding; conditions: read-out: %Ctrl @ 1000 nM
# T25 construct: purchased DiscoveRx KINOMEscan
# YSK4 = biological target: T26, YSK4 (Homo sapiens, UniProt Q56UN5); experiment: KINOMEscan; assay type: binding; conditions: read-out: %Ctrl @ 1000 nM
# T26 construct: purchased DiscoveRx
# TLK1 = biological target: T27, TLK1 (Homo sapiens, UniProt Q9UKI8); experiment: KINOMEscan; assay type: binding; conditions: read-out: %Ctrl @ 1000 nM
# T27 construct: purchased DiscoveRx KINOMEscan
# OSR1 = biological target: T28, OSR1 (Homo sapiens, UniProt O95747); experiment: KINOMEscan; assay type: binding; conditions: read-out: %Ctrl @ 1000 nM
# T28 construct: purchased DiscoveRx KINOMEscan
# MEK2 = biological target: T29, MEK2 (Homo sapiens, UniProt P36507); experiment: KINOMEscan; assay type: binding; conditions: read-out: %Ctrl @ 1000 nM
# T29 construct: purchased DiscoveRx KINOMEscan
# FLT3(D835Y) = biological target: T30, FLT3(D835Y) (Homo sapiens, UniProt P36888, D835Y); experiment: KINOMEscan; assay type: binding; conditions: read-out: %Ctrl @ 1000 nM
# T30 construct: purchased DiscoveRx KINOMEscan
# EGFR(G719C) = biological target: T31, EGFR(G719C) (Homo sapiens, UniProt P00533, G719C); experiment: KINOMEscan; assay type: binding; conditions: read-out: %Ctrl @ 1000 nM
# T31 construct: purchased DiscoveRx KINOMEscan
# CSNK1G3 = biological target: T32, CSNK1G3 (Homo sapiens, UniProt Q9Y6M4); experiment: KINOMEscan; assay type: binding; conditions: read-out: %Ctrl @ 1000 nM
# T32 construct: purchased DiscoveRx KINOMEscan
# LCK = biological target: T33, LCK (Homo sapiens, UniProt P06239); experiment: KINOMEscan; assay type: binding; conditions: read-out: %Ctrl @ 1000 nM
# T33 construct: purchased DiscoveRx KINOMEscan
# [3] = biological target: T34, ABL1(Y253F)-phosphorylated (Homo sapiens, UniProt P00519, Y253F); experiment: KINOMEscan; assay type: binding; conditions: read-out: %Ctrl @ 1000 nM
# T34 construct: purchased DiscoveRx
# CHEK2 = biological target: T35, CHEK2 (Homo sapiens, UniProt O96017); experiment: KINOMEscan; assay type: binding; conditions: read-out: %Ctrl @ 1000 nM
# T35 construct: purchased DiscoveRx KINOMEscan
# PLK2 = biological target: T36, PLK2 (Homo sapiens, UniProt Q9NYY3); experiment: KINOMEscan; assay type: binding; conditions: read-out: %Ctrl @ 1000 nM
# T36 construct: purchased DiscoveRx KINOMEscan
# T36 sequence (Q9NYY3 whole entry): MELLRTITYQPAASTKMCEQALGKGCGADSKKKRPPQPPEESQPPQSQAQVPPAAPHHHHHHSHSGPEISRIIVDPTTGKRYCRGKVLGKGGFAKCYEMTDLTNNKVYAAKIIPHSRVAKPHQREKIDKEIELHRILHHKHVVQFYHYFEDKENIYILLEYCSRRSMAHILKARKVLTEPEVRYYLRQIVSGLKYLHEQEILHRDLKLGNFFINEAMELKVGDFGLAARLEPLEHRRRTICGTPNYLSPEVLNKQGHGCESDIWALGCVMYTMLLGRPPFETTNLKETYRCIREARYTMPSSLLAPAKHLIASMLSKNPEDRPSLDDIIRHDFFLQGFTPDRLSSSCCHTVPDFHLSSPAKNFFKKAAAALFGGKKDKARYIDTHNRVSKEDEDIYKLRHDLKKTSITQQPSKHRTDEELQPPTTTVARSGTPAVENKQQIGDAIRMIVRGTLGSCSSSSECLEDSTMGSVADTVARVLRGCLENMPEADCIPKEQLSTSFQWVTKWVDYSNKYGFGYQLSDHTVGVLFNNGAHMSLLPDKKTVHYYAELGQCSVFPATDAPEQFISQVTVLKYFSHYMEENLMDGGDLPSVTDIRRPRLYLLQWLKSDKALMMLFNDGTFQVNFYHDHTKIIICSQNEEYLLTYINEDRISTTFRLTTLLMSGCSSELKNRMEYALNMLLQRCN
# LATS1 = biological target: T37, LATS1 (Homo sapiens, UniProt O95835); experiment: KINOMEscan; assay type: binding; conditions: read-out: %Ctrl @ 1000 nM
# T37 construct: purchased DiscoveRx KINOMEscan
# TRKB = biological target: T38, TRKB (Homo sapiens, UniProt Q16620); experiment: KINOMEscan; assay type: binding; conditions: read-out: %Ctrl @ 1000 nM
# T38 construct: purchased DiscoveRx KINOMEscan
# EPHA6 = biological target: T39, EPHA6 (Homo sapiens, UniProt Q9UF33); experiment: KINOMEscan; assay type: binding; conditions: read-out: %Ctrl @ 1000 nM
# T39 construct: purchased DiscoveRx KINOMEscan
# MEK3 = biological target: T40, MEK3 (Homo sapiens, UniProt P46734); experiment: KINOMEscan; assay type: binding; conditions: read-out: %Ctrl @ 1000 nM
# T40 construct: purchased DiscoveRx KINOMEscan
# T40 sequence (P46734 whole entry): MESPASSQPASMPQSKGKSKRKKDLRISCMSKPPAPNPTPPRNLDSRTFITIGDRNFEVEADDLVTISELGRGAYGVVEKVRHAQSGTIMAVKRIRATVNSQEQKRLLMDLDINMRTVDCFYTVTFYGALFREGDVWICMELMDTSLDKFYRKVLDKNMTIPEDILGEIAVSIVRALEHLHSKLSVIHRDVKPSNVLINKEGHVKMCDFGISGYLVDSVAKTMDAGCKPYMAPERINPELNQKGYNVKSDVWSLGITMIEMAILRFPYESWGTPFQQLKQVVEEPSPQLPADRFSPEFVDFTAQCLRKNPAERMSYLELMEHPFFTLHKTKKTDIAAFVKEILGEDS
# [4] = biological target: T41, EGFR(L747-E749del, A750P) (Homo sapiens, UniProt P00533, A750P/DEL747-749); experiment: KINOMEscan; assay type: binding; conditions: read-out: %Ctrl @ 1000 nM
# T41 construct: purchased DiscoveRx KINOMEscan
smiles,measurement,setting,value
CCN(C(=O)CO)[C@H]1CN(/C(=N\C#N)Nc2cccc(OC(F)F)c2)N=C1c1ccc(Cl)c(Cl)c1 [(S)-4],remaining binding at 1 µM,PIK3CG,90%
same,remaining binding at 1 µM,SGK3,98%
same,remaining binding at 1 µM,p38-gamma,70%
same,remaining binding at 1 µM,STK16,84%
same,remaining binding at 1 µM,PFTK1,84%
same,remaining binding at 1 µM,ASK2,93%
same,remaining binding at 1 µM,PYK2,100%
same,remaining binding at 1 µM,PRKG2,84%
same,remaining binding at 1 µM,MST2,88%
same,remaining binding at 1 µM,EPHA5,100%
same,remaining binding at 1 µM,GRK1,93%
same,remaining binding at 1 µM,PRKCQ,100%
same,remaining binding at 1 µM,[1],93%
same,remaining binding at 1 µM,MERTK,73%
same,remaining binding at 1 µM,TAK1,100%
same,remaining binding at 1 µM,PLK3,89%
same,remaining binding at 1 µM,SRPK1,57%
same,remaining binding at 1 µM,TAOK2,91%
same,remaining binding at 1 µM,[2],100%
same,AHNAK methylation (Western blot),SMYD2,specifically reduced methylation of AHNAK; also recorded: inhibits concentration dependent
same,remaining binding at 1 µM,FGFR3,88%
same,remaining binding at 1 µM,PIK3CA(H1047Y),92%
same,remaining binding at 1 µM,TEC,99%
same,remaining binding at 1 µM,CDK4-cyclinD1,93%
same,remaining activity at 1 µM,PKNB(M.tuberculosis),88%
same,remaining binding at 1 µM,PRKG1,100%
same,remaining binding at 1 µM,DYRK1B,74%
same,remaining binding at 1 µM,YSK4,93%
same,remaining binding at 1 µM,TLK1,100%
same,remaining binding at 1 µM,OSR1,78%
same,remaining binding at 1 µM,MEK2,90%
same,remaining binding at 1 µM,FLT3(D835Y),78%
same,remaining binding at 1 µM,EGFR(G719C),86%
same,remaining binding at 1 µM,CSNK1G3,79%
same,remaining binding at 1 µM,LCK,66%
same,remaining binding at 1 µM,[3],100%
same,remaining binding at 1 µM,CHEK2,99%
same,remaining binding at 1 µM,PLK2,83%
same,remaining binding at 1 µM,LATS1,90%
same,remaining binding at 1 µM,TRKB,100%
same,remaining binding at 1 µM,EPHA6,99%
same,remaining binding at 1 µM,MEK3,100%
same,remaining binding at 1 µM,[4],87%
